Measured values as given in patent publication US7008944B2, “Antidepressant azaheterocyclylmethyl derivatives of 2,3-dihydro-1,4-Dioxino[2,3-f]quinoxaline” (Wyeth, priority 2001, dated 2006).
Read-outs that look alike come from different tables or passages of the source.

Assays:
[1] = target: T1, cloned human 5-HT1A receptors (Homo sapiens, UniProt P08908); assay: 35S-GTPγS binding assay, 5-HT1A antagonist activity; type: biochemical; conditions: reversal of the effects of standard agonist 8-OH DPAT; for IC50: read-out: 5-HT1A Function IC50
T1 construct: expressed in transfected cells
T1 sequence (P08908 1-422): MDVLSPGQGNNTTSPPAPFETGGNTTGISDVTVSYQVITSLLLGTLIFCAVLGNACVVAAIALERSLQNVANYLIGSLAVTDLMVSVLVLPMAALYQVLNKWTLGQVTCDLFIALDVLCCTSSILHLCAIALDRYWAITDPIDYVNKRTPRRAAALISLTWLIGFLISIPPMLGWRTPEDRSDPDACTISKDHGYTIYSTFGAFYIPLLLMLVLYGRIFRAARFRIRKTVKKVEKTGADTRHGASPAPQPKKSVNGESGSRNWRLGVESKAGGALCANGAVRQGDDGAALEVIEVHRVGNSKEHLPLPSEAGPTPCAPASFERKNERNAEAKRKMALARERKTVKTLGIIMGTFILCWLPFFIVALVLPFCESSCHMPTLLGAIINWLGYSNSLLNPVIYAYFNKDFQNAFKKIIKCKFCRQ
Description: Antagonist activity at 5-HT1A receptors was established by using a ^35S-GTPγS binding assay similar to that used by Lazareno and Birdsall (Br. J. Pharmacol. 109: 1120, 1993), in which the test compound's ability to affect the binding of ^35S-GTPγS to membranes containing cloned human 5-HT1A receptors was determined. Agonists produce an increase in binding whereas antagonists produce no increase but rather reverse the effects of the standard agonist 8-OH DPAT. The test compound's maximum inhibitory effect is represented as the Imax, while its potency is defined by the IC50.

human 5-HT1A receptors = target: T2, human 5-HT1A receptors (Homo sapiens, UniProt P08908); assay: [3H] 8-OHDPAT displacement, 5-HT1A receptor affinity; type: binding
T2 construct: expressed in transfected cells; host or cells: CHO cells
T2 sequence (P08908 1-422): T1 sequence (P08908 1-422)
Excerpt: High affinity for the serotonin 5-HT1A receptor was established by testing the claimed compound's ability to displace [^3H] 8-OHDPAT (dipropylamino-tetralin) from the 5-HT1A serotonin receptor following a modification of the procedure of Hall et al., J. Neurochem. 44, 1685 (1985) which utilizes CHO cells stably transfected with human 5-HT1A receptors.

serotonin transporter = target: T3, serotonin transporter (Rattus norvegicus, UniProt P31652); assay: 3H-paroxetine displacement, serotonin transporter affinity; type: binding
T3 construct: displace ^3H-paroxetine from male rat frontal cortical membranes; from tissue; host or cells: male rat frontal cortex membranes
T3 sequence (P31652 whole entry): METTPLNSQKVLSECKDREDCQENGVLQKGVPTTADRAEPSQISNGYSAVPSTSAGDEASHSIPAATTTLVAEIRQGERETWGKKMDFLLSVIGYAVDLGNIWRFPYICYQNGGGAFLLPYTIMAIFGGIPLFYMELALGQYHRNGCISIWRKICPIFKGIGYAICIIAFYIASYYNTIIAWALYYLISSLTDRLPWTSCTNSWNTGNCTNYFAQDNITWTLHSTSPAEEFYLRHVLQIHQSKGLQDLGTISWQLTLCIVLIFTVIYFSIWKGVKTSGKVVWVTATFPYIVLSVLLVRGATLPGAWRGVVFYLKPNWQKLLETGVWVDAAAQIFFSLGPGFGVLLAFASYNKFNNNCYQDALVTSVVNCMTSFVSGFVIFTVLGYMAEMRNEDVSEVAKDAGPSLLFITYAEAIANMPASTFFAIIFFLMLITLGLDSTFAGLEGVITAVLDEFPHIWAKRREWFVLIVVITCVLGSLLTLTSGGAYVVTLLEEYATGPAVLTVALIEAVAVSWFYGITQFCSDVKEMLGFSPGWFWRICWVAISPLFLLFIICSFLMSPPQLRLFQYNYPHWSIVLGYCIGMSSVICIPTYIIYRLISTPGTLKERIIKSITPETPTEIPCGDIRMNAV

| Ki (human 5-HT1A receptors; displacement of [3H] 8-OHDPAT, CHO cells stably transfected with human 5-HT1A receptors, read-out: 5-HT1A Receptor Affinity KI) [nM] | Ki (serotonin transporter; displacement of 3H-paroxetine from male rat frontal cortical membranes, read-out: 5-HT Transporter Affinity KI) [nM] | SMILES | 5-HT1A Function Imax (maximum inhibitory effect) [1] [%] | IC50 [1] [nM] | Ki (human 5-HT1A receptors) [nM] | Ki (serotonin transporter) [nM] | melting point |
| --- | --- | --- | --- | --- | --- | --- | --- |
|  |  | Fc1ccc2[nH]cc(C3=CCN(CC4COc5ccc6nccnc6c5O4)CC3)c2c1 (stereo not drawn) [Example 1, 2-{[4-(5-Fluoro-1H-indol-3-yl)-3,6-dihydro-1(2H)-pyridinyl]methyl}-2,3-dihydro[1,4]dioxino[2,3-f]quinoxaline] | 100 | 271 | 17.7 | 0.5 | > 200 °C (dec.) |
|  |  | C1=C(c2c[nH]c3ccccc23)CCN(CC2COc3ccc4nccnc4c3O2)C1 (stereo not drawn) [Example 2, 2-{[4-(1H-Indol-3-yl)-3,6-dihydro-1(2H)-pyridinyl]methyl}-2,3-dihydro[1,4]dioxino[2,3-f]quinoxaline] | 100 | 203 | 30 | 2.86 | > 220 °C (dec.) |
|  |  | Cc1nc2ccc3c(c2nc1C)O[C@@H](CN1CC=C(c2c[nH]c4ccccc24)CC1)CO3 [Example 3] | 100 | 332 | 15.3 | 1.19 | 153 to 155 °C |
|  |  | Cc1nc2ccc3c(c2nc1C)OC(CN1CC=C(c2c[nH]c4ccc(F)cc24)CC1)CO3 (stereo not drawn) [Example 4, 2-{[4-(5-Fluoro-1H-indol-3-yl)-3,6-dihydro-1(2H)-pyridinyl]methyl}-8,9-dimethyl-2,3-dihydro[1,4]dioxino[2,3-f]quinoxaline] | 100 | 389 | 25.5 | 1.57 | 138 to 141 °C |
|  |  | CCc1nc2ccc3c(c2nc1CC)OC(CN1CC=C(c2c[nH]c4ccccc24)CC1)CO3 (stereo not drawn) [Example 5, 8,9-Diethyl-2-{[4-(1H-indol-3-yl)-3,6-dihydro-1(2H)-pyridinyl]methyl}-2,3-dihydro[1,4]dioxino[2,3-f]quinoxaline] | 98 | 1860 | 99.2 | 9.5 | > 120 °C (dec.) |
| 264 | 14 | CCc1nc2ccc3c(c2nc1CC)OC(CN1CC=C(c2c[nH]c4ccc(F)cc24)CC1)CO3 (stereo not drawn) [Example 6, 8,9-Diethyl-2-{[4-(5-fluoro-1H-indol-3-yl)-3,6-dihydro-1(2H)-pyridinyl]methyl}-2,3-dihydro[1,4]dioxino[2,3-f]quinoxaline] | 100 | 2240 |  |  | > 120 °C (dec.) |
